From ChEMBL document CHEMBL1156557, “Structure and biosynthesis of norneolambertellin produced by Lambertella sp. 1346” (Bioorg Med Chem Lett, 2008)
Activity calls are given as the source filed them. The rule behind the calls is not given here.

Experiments:
Bipolaris oryzae = test: Antifungal activity against Cochliobolus miyabeanus at 50 ug/ml; assay type: functional, organism-based
Monilinia fructigena = test: Antifungal activity against Monilinia fructigena; assay type: functional, organism-based

Cc1cc2c(=O)oc3c(O)cccc3c2oc1=O
Activity (Bipolaris oryzae): Active | Activity (Monilinia fructigena): inactive
